Results on two compounds are retold here after ChEMBL document CHEMBL4387735, “Chemically synthesized LYRM03 could inhibit the metastasis of human breast cancer MDA-MB-231 cells in vitro and in vivo” (Bioorg Med Chem Lett, 2019).

Data set [1] relates to MDA-MB-231. As to the kind of experiment: Cytotoxicity against human MDA-MB-231 cells assessed as reduction in cell viability at 100 ug/ml incubated for 48 hrs by MTT assay. Format: cell-based. The following applies: mda-mb-231, 48 h.
Data set [2] deals with MDA-MB-231. In words: Antimetastatic activity against human MDA-MB-231 cells xenografted in SCID mouse assessed as reduction in metastasis foci formation in lungs at 100 mg/kg, ip administered 3 times per week by hematoxylin-eosin staining based assay. The format is functional, organism-based. In general terms: Xenograft models place foreign cells or tissue in a host animal.

Data set [3] deals with Aminopeptidase N (Homo sapiens) (UniProt P15144). The following applies: MDA-MB-231, 50 ug/ml.
Aminopeptidase N (Homo sapiens), sequence (P15144 whole entry): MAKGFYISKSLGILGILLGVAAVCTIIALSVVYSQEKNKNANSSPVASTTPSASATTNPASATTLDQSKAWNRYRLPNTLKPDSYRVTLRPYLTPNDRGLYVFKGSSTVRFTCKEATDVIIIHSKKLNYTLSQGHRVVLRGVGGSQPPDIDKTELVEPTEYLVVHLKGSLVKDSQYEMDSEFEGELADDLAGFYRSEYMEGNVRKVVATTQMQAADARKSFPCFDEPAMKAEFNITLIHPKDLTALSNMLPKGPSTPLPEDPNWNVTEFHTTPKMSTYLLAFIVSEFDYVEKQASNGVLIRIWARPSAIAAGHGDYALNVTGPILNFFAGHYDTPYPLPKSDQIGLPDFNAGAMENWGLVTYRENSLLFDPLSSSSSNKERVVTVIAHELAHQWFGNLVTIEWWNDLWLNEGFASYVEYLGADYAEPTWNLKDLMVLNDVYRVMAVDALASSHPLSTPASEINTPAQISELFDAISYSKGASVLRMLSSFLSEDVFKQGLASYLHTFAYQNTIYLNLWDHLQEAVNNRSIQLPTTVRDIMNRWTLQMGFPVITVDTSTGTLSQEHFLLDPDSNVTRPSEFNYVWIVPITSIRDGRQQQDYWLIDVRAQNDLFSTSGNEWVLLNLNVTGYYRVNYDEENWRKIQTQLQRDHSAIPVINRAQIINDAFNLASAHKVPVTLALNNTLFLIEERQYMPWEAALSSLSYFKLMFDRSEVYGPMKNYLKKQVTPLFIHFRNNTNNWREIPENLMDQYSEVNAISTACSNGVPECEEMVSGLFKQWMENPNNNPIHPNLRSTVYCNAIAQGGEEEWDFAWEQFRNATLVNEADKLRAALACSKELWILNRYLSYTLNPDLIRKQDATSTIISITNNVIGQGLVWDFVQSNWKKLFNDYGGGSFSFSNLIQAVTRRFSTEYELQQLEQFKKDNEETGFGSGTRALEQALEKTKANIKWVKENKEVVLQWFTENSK
Description: Inhibition of human APN in MDA-MB-231 cells at 50 ug/ml using L-leucine-p-nitroanilide as a substrate incubated for 1 hr by spectrophotometric method relative to control
Data set [4] concerns MDA-MB-231. As to the kind of experiment: Induction of apoptosis in human MDA-MB-231 cells assessed as early apoptotic cells at 50 ug/ml by Annexin V/PI staining based flow cytometric method (reference value: 0.54%). The format is functional. (In general: Flow cytometry measures light scatter and fluorescence of single cells or particles in a stream.)
The test system of data set [5] is MDA-MB-231. In words: Induction of apoptosis in human MDA-MB-231 cells assessed as live cells at 50 ug/ml by Annexin V/PI staining based flow cytometric method (reference value: 90.75%). The format is functional.
In data set [6] the test system is MDA-MB-231. As to the kind of experiment: Cytotoxicity against human MDA-MB-231 cells assessed as reduction in cell viability at 100 ug/ml incubated for 24 to 48 hrs by MTT assay relative to control. The format is cell-based. On the technique in general: Tetrazolium dyes change colour on reduction, which living cells bring about.
The target of data set [7] is Aminopeptidase N (Homo sapiens) (UniProt P15144). In words: Inhibition of human APN in MDA-MB-231 cells at >50 ug/ml using L-leucine-p-nitroanilide as a substrate incubated for 1 hr by spectrophotometric method relative to control. Format: cell-based.
The subject of data set [8] is MDA-MB-231. As to the kind of experiment: Effect on APN protein expression in human MDA-MB-231 cells at 10 to 100 ug/ml by Western blot analysis. The format is functional, cell-based.
In data set [9] the test system is MDA-MB-231. In words: Induction of apoptosis in human MDA-MB-231 cells assessed as late apoptotic cells at 50 ug/ml by Annexin V/PI staining based flow cytometric method (reference value: 0.92%). The format is functional.
Data set [10] has as its system MDA-MB-231. In words: Induction of apoptosis in human MDA-MB-231 cells assessed as necrotic cells at 50 ug/ml by Annexin V/PI staining based flow cytometric method (reference value: 7.79%). The format is functional.
Data set [11] concerns MDA-MB-231. In words: Induction of apoptosis in human MDA-MB-231 cells assessed as live cells at 100 ug/ml by Annexin V/PI staining based flow cytometric method (reference value: 90.75%). Format: functional.
Data set [12] relates to MDA-MB-231. In words: Induction of apoptosis in human MDA-MB-231 cells assessed as early apoptotic cells at 100 ug/ml by Annexin V/PI staining based flow cytometric method (reference value: 0.54%). Format: functional.
For data set [13], the system named is MDA-MB-231. As to the kind of experiment: Induction of apoptosis in human MDA-MB-231 cells assessed as late apoptotic cells at 100 ug/ml by Annexin V/PI staining based flow cytometric method (reference value: 0.92%). The format is functional.
Data set [14] has as its system MDA-MB-231. As to the kind of experiment: Induction of apoptosis in human MDA-MB-231 cells assessed as necrotic cells at 100 ug/ml by Annexin V/PI staining based flow cytometric method (reference value: 7.79%). Format: functional.
The test system of data set [15] is MDA-MB-231. As to the kind of experiment: Inhibition of colony formation in human MDA-MB-231 cells at 50 to 100 ug/ml incubated for 10 days. The format is functional, cell-based.
Data set [16] deals with MDA-MB-231. As to the kind of experiment: Inhibition of cell migration in human MDA-MB-231 cells incubated upto to 24 hrs by wound healing assay. The format is functional, cell-based.
The test system of data set [17] is MDA-MB-231. As to the kind of experiment: Antimigratory activity in human MDA-MB-231 cells assessed as induction of slow cell migration at 100 ug/ml incubated up to 24 hrs by wound healing assay. Format: functional, cell-based.
In data set [18] the test system is MDA-MB-231. In words: Antimetastatic activity in human MDA-MB-231 cells assessed as reduction in cell migration at 50 to 100 ug/ml incubated for 24 hrs by transwell assay. The format is functional, cell-based.
Data set [19] has as its system MDA-MB-231. As to the kind of experiment: Effect on MMP2 protein expression in human MDA-MB-231 cells. Format: functional, cell-based.
Data set [20] concerns MDA-MB-231. In words: Effect on MMP7 protein expression in human MDA-MB-231 cells. The format is functional, cell-based.
The subject of data set [21] is MDA-MB-231. As to the kind of experiment: Effect on MMP9 protein expression in human MDA-MB-231 cells. Format: functional, cell-based.
Data set [22] has as its system MDA-MB-231. As to the kind of experiment: Induction of apoptosis in human MDA-MB-231 cells assessed as induction of PARP cleavage at 10 to 100 ug/ml 6 to 48 hrs by Western blot analysis. Format: functional, cell-based.
The test system of data set [23] is MDA-MB-231. In words: Inhibition of cell migration in human MDA-MB-231 cells assessed as scratch healing at 10 to 100 ug/ml incubated for 24 hrs by wound healing assay. The format is functional. Also noted: scale not given: the % may be the effect or the level left.

Active and inactive are the calls of the source. The rule behind the calls is not given here.

Usually inhibition stands for the share of the control response that was lost under treatment. In the case of `CC(C)C[C@H](NC(=O)[C@@H](O)[C@H](N)Cc1ccccc1)C(=O)O` [UBENIMEX], the Activity result with MDA-MB-231 [1] is listed as “Toxic”. The result with MDA-MB-231 [2] was Active. Besides, the inhibition entry in [3] was “Active”.
Take `CC[C@H](C)[C@H](NC(=O)[C@@H](NC(=O)[C@@H](O)[C@H](N)Cc1ccccc1)C(C)C)C(=O)O`: the Activity in the data set with MDA-MB-231 [4] was 0.73%; in the data set with MDA-MB-231 [5], 89.98%; in the data set with MDA-MB-231 [6], “<= 20%”; in the data set on MDA-MB-231 [9] it was 0.77%; in the data set with MDA-MB-231 [10] it was 8.51%; with MDA-MB-231 [11] it was 89.5%. Further, the Activity in the data set with MDA-MB-231 [12] stood at 0.71%; in the data set with MDA-MB-231 [13], 0.75%; with MDA-MB-231 [14] it was 9.05%; with MDA-MB-231 [23], 50%. Further, the values for the inhibition (in [7]; with MDA-MB-231 [16]) were more than 50% and “Dose-dependent effect”, respectively. Further, the outcome with MDA-MB-231 [8], in the data set on MDA-MB-231 [19], in the data set with MDA-MB-231 [20], in the data set on MDA-MB-231 [21] and in the data set on MDA-MB-231 [22] was inactive. Moreover, in the data set with MDA-MB-231 [15], the inhibition result was “Active”. The outcome with MDA-MB-231 [17], with MDA-MB-231 [18] and in the data set on MDA-MB-231 [2] was Active.
